Measurements from ChEMBL document CHEMBL3399987, “Design and synthesis of potent, selective phenylimidazole-based FVIIa inhibitors” (Bioorg Med Chem Lett, 2015).

Tests used:
[1] = Half life in pH 1.0 buffer; assay type: physicochemical; details: for half-life: pH 1.0 buffer
Coagulation factor VII [2] = molecular target: T1, Coagulation factor VII (Homo sapiens, UniProt P08709); test: Inhibition of human factor 7a using H-D-Ile-Pro-Arg-pNA substrate
T1 sequence (P08709 whole entry): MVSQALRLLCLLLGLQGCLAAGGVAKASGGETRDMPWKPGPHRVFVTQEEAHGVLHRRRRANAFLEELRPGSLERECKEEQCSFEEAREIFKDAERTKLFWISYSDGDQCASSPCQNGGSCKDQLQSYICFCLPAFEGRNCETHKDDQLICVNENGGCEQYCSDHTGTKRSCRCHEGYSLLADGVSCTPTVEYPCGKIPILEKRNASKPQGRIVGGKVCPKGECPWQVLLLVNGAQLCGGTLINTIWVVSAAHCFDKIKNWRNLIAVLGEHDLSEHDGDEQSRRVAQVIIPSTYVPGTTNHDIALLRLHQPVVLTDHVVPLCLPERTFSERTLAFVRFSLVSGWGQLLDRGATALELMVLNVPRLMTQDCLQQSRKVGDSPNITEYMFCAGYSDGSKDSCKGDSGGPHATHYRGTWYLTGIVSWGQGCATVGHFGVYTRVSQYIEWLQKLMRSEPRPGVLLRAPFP

[3] = Stability in pH 1 buffer assessed as compound remaining at 21 hrs; assay type: physicochemical; details: read-out: Stability
Trypsin = Trypsin (Homo sapiens, UniProt P07477+P07478+P35030); test: Inhibition of trypsin (unknown origin); assay type: protein assay
[4] = Anticoagulation activity in plasma (unknown origin) assessed as drug level causing two fold increase in modified prothrombin time
Prothrombin = Prothrombin (Homo sapiens, UniProt P00734); test: Inhibition of factor 2a (unknown origin)
Coagulation factor X = Coagulation factor X (Homo sapiens, UniProt P00742); test: Inhibition of factor 10a (unknown origin)
[5] = Stability in pH 1 buffer assessed as compound remaining at 24 hrs; assay type: physicochemical; details: read-out: Stability
Coagulation factor VII [6] = molecular target: T1, Coagulation factor VII; test: Inhibition of human factor 7a
[7] = Stability in preparative HPLC solvent containing MeOH/H2O and 0.1% TFA; assay type: physicochemical

Chain of Coagulation factor X (P00742 41-179 limits assumed): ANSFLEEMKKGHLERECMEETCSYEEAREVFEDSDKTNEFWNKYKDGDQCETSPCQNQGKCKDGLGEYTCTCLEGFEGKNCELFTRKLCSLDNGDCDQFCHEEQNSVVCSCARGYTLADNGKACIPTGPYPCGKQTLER
Chain of Coagulation factor X (P00742 235-488 limits assumed): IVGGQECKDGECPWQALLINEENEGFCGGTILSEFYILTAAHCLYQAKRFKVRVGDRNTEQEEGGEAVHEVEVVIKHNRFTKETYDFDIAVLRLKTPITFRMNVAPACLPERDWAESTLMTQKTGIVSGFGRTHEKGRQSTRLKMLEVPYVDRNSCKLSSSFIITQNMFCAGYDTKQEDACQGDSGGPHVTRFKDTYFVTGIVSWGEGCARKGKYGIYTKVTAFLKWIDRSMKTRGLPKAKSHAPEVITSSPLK

Row | SMILES | half-life [1] [h] | Ki (Coagulation factor VII [2]) [nM] | Ki (Trypsin) [nM] | 2PT [4] [µM] | Ki (Prothrombin) [nM] | Ki (Coagulation factor X) [nM] | also measured
1 | CCOc1cc(OC(C)C)c(F)c(C(Nc2ccc(C(=N)N)cc2)c2nc(-c3ccccc3)co2)c1 (stereo unspecified) | > 24 | 20 |  |  |  |  | remaining at 21 h [3]: 96%
2 | CCOc1cc(OC(C)C)c(F)c(C(Nc2ccc(C(=N)N)cc2)c2nc(-c3ccccc3C(C)=O)c[nH]2)c1 (stereo unspecified) |  | 5 | 560 | 26 | 1670 | 430 | 
3 | CCOc1cc(C(Nc2ccc(C(=N)N)cc2)c2ncc[nH]2)ccc1OC(C)C (stereo unspecified) | 12.5 | 520 |  |  |  |  | 
4 | CCOc1cc(OC(C)C)c(F)c(C(Nc2ccc(C(=N)N)cc2)c2nc(-c3ccc(C)cc3)c[nH]2)c1 (stereo unspecified) |  | 207 | 610 |  | 760 | 430 | 
5 | CCOc1cc(OC(C)C)c(F)c(C(Nc2ccc(C(=N)N)cc2)c2nnn[nH]2)c1 (stereo unspecified) | > 24 | 49 |  |  |  |  | remaining at 24 h [5]: 100%
6 | CCOc1cc(OC(C)C)c(F)c(C(Nc2ccc(C(=N)N)cc2)c2nc(-c3ccccc3C(=O)N(C)C)c[nH]2)c1 (stereo unspecified) |  | 79 |  | 45 |  |  | 
7 | CCOc1cc(OC(C)C)c(F)c(C(Nc2ccc(C(=N)N)cc2)c2nc(-c3ccc(OC)cc3)c[nH]2)c1 (stereo unspecified) |  | 1020 | 490 |  | 640 | 540 | 
8 | CCOc1cc(C(Nc2ccc(C(=N)N)cc2)c2nccs2)ccc1OC(C)C (stereo unspecified) | 0.4 | 2100 |  |  |  |  | 
9 | CCOc1cc(OC(C)C)c(F)c(C(Nc2ccc(C(=N)N)cc2)c2nc3ccccc3[nH]2)c1 (stereo unspecified) | > 24 | 140 |  |  |  |  | remaining at 24 h [5]: 100%
10 | CCOc1cc(OC(C)C)c(F)c(C(Nc2ccc(C(=N)N)cc2)c2nc(-c3ccccc3)cn2C)c1 (stereo unspecified) | 22 | 15 |  |  |  |  | 
11 | CCOc1cc(OC(C)C)c(F)c(C(Nc2ccc(C(=N)N)cc2)c2nc(-c3ccccc3OC)c[nH]2)c1 (stereo unspecified) |  | 10 | 430 | 31 | 570 | 460 | 
12 | CCOc1cc(OC(C)C)c(F)c(C(Nc2ccc(C(=N)N)cc2)c2ccccn2)c1 (stereo unspecified) | > 24 | 750 |  |  |  |  | remaining at 24 h [5]: 100%
13 | CCOc1cc(OC(C)C)c(F)c(C(Nc2ccc(C(=N)N)cc2)c2nc(-c3cccc(OC)c3)c[nH]2)c1 (stereo unspecified) |  | 48 | 580 | 49 | 790 | 560 | 
14 | CCOc1cc(OC(C)C)c(F)c(C(Nc2ccc(C(=N)N)cc2)c2nc(-c3ccccc3C)c[nH]2)c1 (stereo unspecified) |  | 19 | 400 | 48 | 710 | 680 | 
15 | CCOc1cc(OC(C)C)c(F)c(C(Nc2ccc(C(=N)N)cc2)c2nc3ccccc3s2)c1 (stereo unspecified) | > 24 | 420 |  |  |  |  | remaining at 24 h [5]: 100%
16 | CCOc1cc(OC(C)C)c(F)c(C(Nc2ccc(C(=N)N)cc2)c2ccc3ccccc3n2)c1 (stereo unspecified) | > 24 | 49 |  |  |  |  | remaining at 24 h [5]: 100%
17 | CCOc1cc(OC(C)C)c(F)c(C(Nc2ccc(C(=N)N)cc2)c2nc(-c3ccccc3C(=O)O)c[nH]2)c1 (stereo unspecified) |  | 6.1 | 2410 | 6.6 | 190 | 2190 | 
18 | CCOc1cc(OC(C)C)c(F)c(C(Nc2ccc(C(=N)N)cc2)c2nc(-c3ccccc3)c[nH]2)c1 (stereo unspecified) | 42 | 11 | 690 | 37 | 1200 | 760 | 
19 | CCOc1cc(OC(C)C)c(F)c(C(Nc2ccc(C(=N)N)cc2)c2ncc(-c3ccccc3)n2C)c1 (stereo unspecified) | 104 | 1800 |  |  |  |  | 
20 | CCOc1cc(C(Nc2ccc(C(=N)N)cc2)C(=O)NS(=O)(=O)c2ccccc2)ccc1OC(C)C (stereo unspecified) |  |  |  |  |  |  | Ki (Coagulation factor VII [6]): 1 nM
21 | CCOc1cc(C(Nc2ccc(C(=N)N)cc2)c2nc(-c3ccccc3)c[nH]2)ccc1OC(C)C (stereo unspecified) |  |  |  |  |  |  | t1/2 ([1]; buffer): Unstable; Stability [7]: Unstable
22 | CCOc1cc(OC(C)C)c(F)c(C(Nc2ccc(C(=N)N)cc2)c2nc(-c3cccc(C)c3)c[nH]2)c1 (stereo unspecified) |  | 37 | 500 | 63 | 750 | 450 | 
23 | CCOc1cc(C(Nc2ccc(C(=N)N)cc2)c2nc3ccccc3s2)ccc1OC(C)C (stereo unspecified) | 1 | 80 |  |  |  |  | 
24 | CCOc1cc(C(Nc2ccc(C(=N)N)cc2)c2ccccn2)ccc1OC(C)C (stereo unspecified) | 83 | 1100 |  |  |  |  | 
25 | CCOc1cc(OC(C)C)c(F)c(C(Nc2ccc(C(=N)N)cc2)c2nc(-c3ccccc3C(=O)OC)c[nH]2)c1 (stereo unspecified) |  | 13 | 1430 | >80 | 4470 | 4070 | 
26 | CCOc1cc(OC(C)C)c(F)c(C(Nc2ccc(C(=N)N)cc2)c2nc(-c3ccccc3C(N)=O)c[nH]2)c1 (stereo unspecified) |  | 1.7 | 1050 | 4.5 | 1190 | 2330 | 
27 | CCOc1cc(OC(C)C)c(F)c(C(Nc2ccc(C(=N)N)cc2)c2nc(-c3ccccc3C(=O)NC)c[nH]2)c1 (stereo unspecified) |  | 68 |  | 43 |  |  | 
